From patent US8691764B2, “Inhibitors of NF-κB activity” (The Research Foundation for the State University of New York, priority 2007, dated 2014) come the findings set out here.

For experiment [1], the system named is NF-κB p65. Nature of the experiment: Confocal microscopy co-localization of annexin 1 and p65, BxPC-3 cells. The class given is cell-based, human. Particulars: 3 h, NO-ASA 20 μM or Dex 4 μM. As to the method:
BxPC-3 cells were seeded on cover-glasses in a 12-well plate for 24 h. The cells were exposed to 10 or 20 μM NO-ASA or 2 or 4 μM Dex for 3 h, fixed with 4% paraformaldehyde in PBS containing 30 mM sucrose, permeabilized with 0.2% saponin in PBS containing 30 mM sucrose, and blocked with 5% normal goat serum in PBS containing 1% BSA. The cells were incubated with mouse monoclonal IgG2b anti-annexin 1 (Santa Cruz Biotechnology) and rabbit monoclonal IgG anti-p65 (Cell Signaling, MA) at RT for 1 h. After three washes with PBS containing 1% BSA, the cells were incubated with Alexa555 conjugated donkey anti-mouse IgG (Molecular Probes) and Alexa 488 conjugated goat anti-rabbit IgG (Molecular Probes) at RT for an hour. Images were acquired with a Zeiss LSM 510 META NLO Two-Photon Laser Scanning Image Confocal Microscope and the colocalization scores were generated by the Colocalization Macro program. The control experiments were performed using non-specific mouse IgG2b and/or rabbit IgG. Red fluorescence localized annexin 1, green fluorescence localized p65 (NF-κB) and co-localization of the two proteins generated yellow fluorescence.

Experiment [2] deals with NF-κB p65. Nature of the experiment: Co-localization of annexin 1 and p65 in intestinal epithelial cells of treated mice. The class given is in vivo. Particulars: NO-ASA 100 mg/kg, 7 days. As to the method: A mouse model of multiple intestinal neoplasia, the Min mice, and the congenic parent wild-type mice were used to test the in vivo action of NO-ASA in the induction of annexin 1. Both wild-type and Min mice were treated for 7 days with vehicle or NO-ASA 100 mg/kg. After 7 days of treatment, the mice were sacrificed and the epithelial cells were evaluated as in Example 6 by confocal microscopy.

Experiment [3] relates to NF-κB p65. Nature of the experiment: Co-immunoprecipitation of annexin 1 with p65, BxPC-3 cells. The class given is cell-based, human. Particulars: 3 h, NO-ASA 20 μM or Dex 4 μM. As to the method:
The gel shift assays were carried out according to the manufacturer's protocol (Panomics). Nuclear proteins (10 μg) from each sample were mixed with 10 ng biotinylated p65 double-stranded oligonucleotide probes (5′-[…]-3′ and its complement) (SEQ ID NO:9) in the presence of 1 μg Poly(I/C) DNA. The mixture was incubated at room temperature for 30 min. The binding complex was then resolved using a 6% polyacrylamide/glycerol gel in 0.5% Tris-borate-EDTA, transferred onto a nylon membrane, and fixed on the membrane by UV cross-linking The biotin-labeled probe was detected with streptavidin-horseradish peroxidase. Co-immunoprecipitation was performed as follows: about 500 μg of cell extracts were incubated overnight with 5 μg of agarose-conjugated anti-p65 (Santa Cruz Biotechnology) or anti-annexin 1 antibody (Santa Cruz, Calif.). The precipitate was washed five times with washing buffer (Santa Cruz Biotechnology), dissolved in 2× Laemmli buffer, boiled, and separated by SDS-PAGE and detected by Western blot analysis using ECL™ (Amersham Biosciences) as described above. Control experiments were performed by using rabbit IgG for p65 and mouse IgG2b for annexin 1, respectively (Santa Cruz Biotechnology).

Another experiment has as its system NF-κB. Description: NF-κB activity ELISA, HT-29 cells. The experiment is classed as cell-based, human. Particulars: 3 h. Background: ELISA stands for enzyme-linked immunosorbent assay.
Experiment [4] relates to survivin, Bcl-2, c-IAP-1, c-IAP-2, and TRAF-1. Description: Western blot of NF-κB-dependent anti-apoptotic gene products in BxPC-3 cells. The class given is cell-based, human. To be noted: at 8 h. As for the experimental part:
For Western blotting, the proteins from both cytoplasmic extracts and nuclear extracts were separated by SDS-polyacrylamide gel electrophoresis and transferred onto PVDF membranes (Millipore). The membranes were blocked in 5% nonfat dry milk-TBS-T (20 mM Tris-HCl, pH 7.5, 500 mM NaCl. 0.3% Tween 20) at room temperature (RT) for an hour and probed with anti-annexin 1, c-IAP-1, c-IAP-2, and TRAF-1 (Santa Cruz Biotechnology, Inc. CA), and anti-Bcl-2 antibodies (Cell Signaling Technology), in 5% nonfat dry milk-TBS-T at 4° C. overnight. The blots were washed three times with TBS-T for 5 min each wash and incubated with horseradish peroxidase-conjugated secondary antibody (Santa Cruz) in 5% nonfat dry milk-TBS-T at RT for an hour. After five washes with TBS-T, the blots were developed with the enhanced chemiluminescence system (ECL™ Western Blotting System, Amersham Biosciences) and exposed to x-ray film according to the manufacturer's instructions. Protein loading was normalized using anti-β-actin antibodies (Santa Cruz Biotechnology, Inc).

In experiment [5] the test system is BxPC-3 human pancreatic cancer cells. Description: MTT cell growth assay, BxPC-3. The class given is cell-based. Particulars: 24 hours. As for the experimental part: The growth of the cells at 24 hours was determined using the MTT assay, which was carried out according to the manufacturer's protocol (Sigma). BxPC-3 cells were seeded in a 96-well plate and cultured in RPMI 1640 medium supplemented with 10% fetal bovine serum and 1% penicillin/streptomycin, as described above. […] MTT solution (M-0283) in an amount equal to 10% of the culture medium volume was then added to each well and the cells were incubated for 4 hours. The resulting MTT formazan crystals were dissolved by adding MTT Solvent (M-0408) directly to the culture in an amount equal to the original culture volume with gentle stirring and then quantitated by an ELISA Model 680 Microplate Reader (Biorad).
(Formazan colour is commonly taken as a measure of viable cells.)

The test system of a further experiment is Bcl-xL. Description: NF-κB dependent gene (Bcl-xL) expression in epithelial cells of treated mice. The class given is in vivo. To be noted: wild-type and Min mice. As for the experimental part: To assess whether these changes occur in vivo, the inventors studied isolated small intestine epithelial cells from Min mice and the corresponding wild type mice C57BL/6J (of which the Min mice are a congenic derivative) treated with NO-ASA 100 mg/kg or Dex 10 mg/kg daily for 7 days. Min (multiple intestinal neoplasia), a mutant allele of the murine APC (adenomatous polyposis coli) locus, encodes a nonsense mutation at codon 850. Heterozygous Min mutants spontaneously develop tumors in the intestine and represent a model of intestinal carcinogenesis (M. Lipkin et al., Ann. N.Y. Acad. Sci. 889:14-19 (1999); A. Moser, H. Pitot, W. Dove, Science 247:322-324 (1990)). The levels of annexin 1 were increased in both Min and wild-type mice treated with either NO-ASA or Dex (FIG. 7A and FIG. 8A). The induction of annexin 1 by NO-ASA or Dex was accompanied by the inhibition of NF-κB activity (FIGS. 7B and 8B).

Another experiment concerns HT-29 cells. Nature of the experiment: MTT cell growth assay, HT-29. The experiment is classed as cell-based, human. Particulars: at 24 h; read-out: Inhibition of HT-29 cell growth IC50.

pIC50: −log10 of the molar value.

Consider nitric oxide-donating aspirin [NO-ASA], for which the “co-localization of annexin 1 and p65” value in the experiment with NF-κB p65 [1] is recorded as “co-localize most strongly in the nucleus”. Besides, the “colocalization of annexin 1 and p65 in intestinal cells” value with NF-κB p65 [2] (Min mice) was “greatly enhanced”; in the experiment with NF-κB p65 [2] (wild type mice), “modest but significant colocalization”. The “co-immunoprecipitation of annexin 1 with p65” value in the experiment with NF-κB p65 [3] is “co-immunoprecipitated with p65”. The NF-κB activity entry in the experiment with NF-κB is recorded as “inhibited NF-κB activity in a concentration-dependent manner”. Besides, the “expression of NF-κB-dependent anti-apoptotic genes survivin, Bcl-2, c-IAP-1, c-IAP-2, TRAF-1” value in experiment [4] is recorded as “suppressed the expression”. Moreover, the “growth of BxPC-3 cells” value in experiment [5] is “inhibits the growth”. Also, the “NF-κB dependent gene expression (Bcl-xL)” value with Bcl-xL is given as “inhibited NF-κB dependent gene expression”. Also, the pIC50 in the experiment with HT-29 cells was 4.73.

In general, pIC50 refers to the negative decadic logarithm of the IC50, by convention in mol/L.
